US10844077B2, “Thiazolyl-containing compounds for treating proliferative diseases” (Dana-Farber Cancer Institute, Inc., priority 2014, dated 2020)
Values joined by “and” are separate entries in the source; they are usually repeats but may differ in a detail not shown here. Equal values may be shown once.

Legend:
Assay in all cases: KINATIV assay of compounds I-3 and I-9, lysate directly labeled with ATP-biotin probe (no GF)
Assay type in all cases: cell-based
kinases in BCWM.1 cells [1] = target: kinases in BCWM.1 cells (Homo sapiens, UniProt O94921)
Description: (§1) The cells were harvested and lysed. […] Bound kinases were identified and quantitated by ACTIVX as described in Patricelli et al., Biochemistry, 2007, 46(2): 350-358. The compounds were tested in duplicates against duplicate or quadruplicate control samples.

kinases in BCWM.1 cells [2] = target: kinases in BCWM.1 cells (Homo sapiens, UniProt O95819); details: ZC1/HGK; Lys1; 1 μM, 90 min; no GF
Description: as §1

kinases in BCWM.1 cells [3] = target: kinases in BCWM.1 cells (Homo sapiens, UniProt P04049); details: RAF1; Lys2; 1 μM, 90 min; no GF
Description: as §1

kinases in BCWM.1 cells [4] = target: kinases in BCWM.1 cells (Homo sapiens, UniProt P12931); details: SRC; Lys1; 1 μM, 90 min; no GF
Description: as §1

kinases in BCWM.1 cells [5] = target: kinases in BCWM.1 cells (Homo sapiens, UniProt P15735); details: PHKg2; Lys1; 1 μM, 90 min; no GF
Description: as §1

kinases in BCWM.1 cells [6] = target: kinases in BCWM.1 cells (Homo sapiens, UniProt P30291); details: Wee1; Lys2; 1 μM, 90 min; no GF
Description: as §1

kinases in BCWM.1 cells [7] = target: kinases in BCWM.1 cells (Homo sapiens, UniProt P42338); details: PIK3CB; ATP; 1 μM, 90 min; no GF
Description: as §1

kinases in BCWM.1 cells [8] = target: kinases in BCWM.1 cells (Homo sapiens, UniProt P42680); details: TEC; Activation Loop; 1 μM, 90 min; no GF
Description: as §1

kinases in BCWM.1 cells [9] = target: kinases in BCWM.1 cells (Homo sapiens, UniProt P51812); details: Lys2, 1 μM, 90 min, no GF
Description: as §1

kinases in BCWM.1 cells [10] = target: kinases in BCWM.1 cells (Homo sapiens, UniProt Q00536)
Description: as §1

kinases in BCWM.1 cells [11] = target: kinases in BCWM.1 cells (Homo sapiens, UniProt Q15349); details: RSK3 domain1; Lys2; 1 μM, 90 min; no GF
Description: as §1

kinases in BCWM.1 cells [12] = target: kinases in BCWM.1 cells (Homo sapiens, UniProt Q15418); details: Lys2, 1 μM, 90 min, no GF
Description: as §1

kinases in BCWM.1 cells [13] = target: kinases in BCWM.1 cells (Homo sapiens, UniProt Q16816); details: PHKg1; Protein Kinase Domain; 1 μM, 90 min; no GF
Description: as §1

kinases in BCWM.1 cells [14] = target: kinases in BCWM.1 cells (Homo sapiens, UniProt Q58A45); details: PAN3; Protein Kinase Domain; 1 μM, 90 min; no GF
Description: as §1

kinases in BCWM.1 cells [15] = target: kinases in BCWM.1 cells (Homo sapiens, UniProt Q86UE8); details: TLK2; Lys2; 1 μM, 90 min; no GF
Description: as §1

kinases in BCWM.1 cells [16] = target: kinases in BCWM.1 cells (Homo sapiens, UniProt Q86Y07); details: VRK2; Lys2; 1 μM, 90 min; no GF
Description: as §1

kinases in BCWM.1 cells [17] = target: kinases in BCWM.1 cells (Homo sapiens, UniProt Q8NEB9); details: PIK3C3; ATP; 1 μM, 90 min; no GF
Description: as §1

kinases in BCWM.1 cells [18] = target: kinases in BCWM.1 cells (Homo sapiens, UniProt Q8TBX8); details: PIP4K2C; ATP; 1 μM, 90 min; no GF
Description: as §1

kinases in BCWM.1 cells [19] = target: kinases in BCWM.1 cells (Homo sapiens, UniProt Q96SB4); details: SRPK1; Lys2; 1 μM, 90 min; no GF
Description: as §1

kinases in BCWM.1 cells [20] = target: kinases in BCWM.1 cells (Homo sapiens, UniProt Q9UBF8); details: PI4KB; ATP; 1 μM, 90 min; no GF
Description: as §1

kinases in BCWM.1 cells [21] = target: kinases in BCWM.1 cells (Homo sapiens, UniProt Q9UHD2); details: TBK1; Lys1; 1 μM, 90 min; no GF
Description: as §1

kinases in BCWM.1 cells [22] = target: kinases in BCWM.1 cells (Homo sapiens, UniProt Q9UL54); details: TAO2; Lys2; 1 μM, 90 min; no GF
Description: as §1

kinases in BCWM.1 cells [23] = target: kinases in BCWM.1 cells (Homo sapiens, UniProt Q9Y2H1); details: NDR2; Lys2; 1 μM, 90 min; no GF
Description: as §1

kinases in BCWM.1 cells [24] = target: kinases in BCWM.1 cells (Homo sapiens, UniProt Q9Y2I7); details: PIP5K3; ATP; 1 μM, 90 min; no GF
Description: as §1

kinases in BCWM.1 cells [25] = target: kinases in BCWM.1 cells (Homo sapiens, UniProt Q9Y572); details: RIPK3; Lys2; 1 μM, 90 min; no GF
Description: as §1

kinases in BCWM.1 cells [26] = details: 1 μM, no GF
Description: as §1

Sequence of kinases in BCWM.1 cells (Homo sapiens, UniProt Q8TBX8) (Q8TBX8 2-421 limits assumed): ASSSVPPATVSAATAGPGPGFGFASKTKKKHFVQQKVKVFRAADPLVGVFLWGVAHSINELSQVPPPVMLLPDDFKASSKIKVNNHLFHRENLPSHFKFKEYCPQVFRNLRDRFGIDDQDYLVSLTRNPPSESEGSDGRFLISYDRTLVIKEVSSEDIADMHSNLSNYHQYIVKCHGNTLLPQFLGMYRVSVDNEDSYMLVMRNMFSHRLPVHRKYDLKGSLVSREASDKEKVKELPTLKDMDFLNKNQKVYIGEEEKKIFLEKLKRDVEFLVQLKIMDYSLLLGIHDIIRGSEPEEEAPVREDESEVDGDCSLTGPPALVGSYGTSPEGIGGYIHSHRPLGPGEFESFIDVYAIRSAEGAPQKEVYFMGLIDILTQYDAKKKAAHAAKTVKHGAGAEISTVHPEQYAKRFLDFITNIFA
Sequence of kinases in BCWM.1 cells (Homo sapiens, UniProt Q9UBF8) (Q9UBF8 2-816 limits assumed): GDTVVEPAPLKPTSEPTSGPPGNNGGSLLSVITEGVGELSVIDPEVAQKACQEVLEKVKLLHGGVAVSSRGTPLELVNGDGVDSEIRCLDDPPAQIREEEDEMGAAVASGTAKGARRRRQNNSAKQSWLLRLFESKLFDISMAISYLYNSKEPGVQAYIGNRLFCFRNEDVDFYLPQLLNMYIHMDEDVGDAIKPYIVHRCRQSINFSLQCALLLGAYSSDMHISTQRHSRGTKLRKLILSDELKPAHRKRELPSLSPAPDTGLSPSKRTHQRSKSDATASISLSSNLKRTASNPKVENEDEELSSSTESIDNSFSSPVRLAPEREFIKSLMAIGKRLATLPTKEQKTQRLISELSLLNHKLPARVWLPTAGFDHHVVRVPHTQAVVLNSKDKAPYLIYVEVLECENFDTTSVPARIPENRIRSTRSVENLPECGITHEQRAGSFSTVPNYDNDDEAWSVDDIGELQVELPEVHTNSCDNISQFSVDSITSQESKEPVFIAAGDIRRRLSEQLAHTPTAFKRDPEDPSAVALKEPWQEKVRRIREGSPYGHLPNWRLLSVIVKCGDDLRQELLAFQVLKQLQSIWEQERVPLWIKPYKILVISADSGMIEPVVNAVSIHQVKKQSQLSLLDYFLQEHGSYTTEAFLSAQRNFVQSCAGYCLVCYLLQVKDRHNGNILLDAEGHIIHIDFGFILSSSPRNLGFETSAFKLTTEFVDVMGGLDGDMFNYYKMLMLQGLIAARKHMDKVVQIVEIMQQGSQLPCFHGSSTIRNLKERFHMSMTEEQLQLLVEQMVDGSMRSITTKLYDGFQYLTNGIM
Sequence of kinases in BCWM.1 cells (Homo sapiens, UniProt O95819) (O95819 2-1239 limits assumed): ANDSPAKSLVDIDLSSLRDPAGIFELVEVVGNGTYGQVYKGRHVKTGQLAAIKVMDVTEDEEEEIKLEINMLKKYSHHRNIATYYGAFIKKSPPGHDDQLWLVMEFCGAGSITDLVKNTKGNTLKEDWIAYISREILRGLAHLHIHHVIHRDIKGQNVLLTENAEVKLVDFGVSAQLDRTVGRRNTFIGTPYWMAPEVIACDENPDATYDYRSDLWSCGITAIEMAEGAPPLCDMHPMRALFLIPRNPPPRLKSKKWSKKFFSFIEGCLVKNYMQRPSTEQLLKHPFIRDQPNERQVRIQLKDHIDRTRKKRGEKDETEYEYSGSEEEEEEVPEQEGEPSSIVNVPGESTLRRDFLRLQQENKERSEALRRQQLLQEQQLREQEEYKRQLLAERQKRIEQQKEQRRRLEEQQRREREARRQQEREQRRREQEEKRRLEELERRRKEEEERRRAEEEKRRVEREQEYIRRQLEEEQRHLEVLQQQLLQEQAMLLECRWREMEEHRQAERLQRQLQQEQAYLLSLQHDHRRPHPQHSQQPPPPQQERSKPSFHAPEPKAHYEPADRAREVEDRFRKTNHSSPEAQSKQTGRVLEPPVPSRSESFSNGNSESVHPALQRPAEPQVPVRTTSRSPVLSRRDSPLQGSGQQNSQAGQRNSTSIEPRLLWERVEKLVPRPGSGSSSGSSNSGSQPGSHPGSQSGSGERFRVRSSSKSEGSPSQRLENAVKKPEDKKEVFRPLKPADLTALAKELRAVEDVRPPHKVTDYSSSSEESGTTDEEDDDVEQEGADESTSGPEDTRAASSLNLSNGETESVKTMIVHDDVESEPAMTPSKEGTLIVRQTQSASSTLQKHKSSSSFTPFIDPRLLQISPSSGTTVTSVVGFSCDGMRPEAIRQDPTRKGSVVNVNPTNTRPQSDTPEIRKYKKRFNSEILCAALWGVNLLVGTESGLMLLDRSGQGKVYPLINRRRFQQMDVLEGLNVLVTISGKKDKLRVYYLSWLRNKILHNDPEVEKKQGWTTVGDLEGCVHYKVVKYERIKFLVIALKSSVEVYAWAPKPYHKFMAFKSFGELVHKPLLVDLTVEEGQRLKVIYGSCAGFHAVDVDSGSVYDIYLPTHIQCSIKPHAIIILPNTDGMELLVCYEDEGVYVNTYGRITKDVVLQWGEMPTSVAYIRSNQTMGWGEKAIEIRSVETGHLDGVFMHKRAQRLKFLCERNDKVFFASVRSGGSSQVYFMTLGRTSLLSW
Sequence of kinases in BCWM.1 cells (Homo sapiens, UniProt Q9Y2H1) (Q9Y2H1 2-464 limits assumed): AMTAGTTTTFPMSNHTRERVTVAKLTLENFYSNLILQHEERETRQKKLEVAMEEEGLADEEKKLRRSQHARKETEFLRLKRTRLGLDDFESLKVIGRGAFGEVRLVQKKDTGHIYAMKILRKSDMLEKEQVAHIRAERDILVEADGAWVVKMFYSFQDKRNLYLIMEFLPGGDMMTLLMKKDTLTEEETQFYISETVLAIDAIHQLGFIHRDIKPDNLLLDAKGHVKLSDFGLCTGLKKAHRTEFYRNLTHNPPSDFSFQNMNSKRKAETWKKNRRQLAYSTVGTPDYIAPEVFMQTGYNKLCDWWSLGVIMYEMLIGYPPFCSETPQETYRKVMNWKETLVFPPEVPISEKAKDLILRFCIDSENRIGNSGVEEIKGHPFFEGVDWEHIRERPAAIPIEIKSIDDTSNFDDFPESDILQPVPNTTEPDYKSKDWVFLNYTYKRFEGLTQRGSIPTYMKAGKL
Sequence of kinases in BCWM.1 cells (Homo sapiens, UniProt Q9Y2I7) (Q9Y2I7 2-2098 limits assumed): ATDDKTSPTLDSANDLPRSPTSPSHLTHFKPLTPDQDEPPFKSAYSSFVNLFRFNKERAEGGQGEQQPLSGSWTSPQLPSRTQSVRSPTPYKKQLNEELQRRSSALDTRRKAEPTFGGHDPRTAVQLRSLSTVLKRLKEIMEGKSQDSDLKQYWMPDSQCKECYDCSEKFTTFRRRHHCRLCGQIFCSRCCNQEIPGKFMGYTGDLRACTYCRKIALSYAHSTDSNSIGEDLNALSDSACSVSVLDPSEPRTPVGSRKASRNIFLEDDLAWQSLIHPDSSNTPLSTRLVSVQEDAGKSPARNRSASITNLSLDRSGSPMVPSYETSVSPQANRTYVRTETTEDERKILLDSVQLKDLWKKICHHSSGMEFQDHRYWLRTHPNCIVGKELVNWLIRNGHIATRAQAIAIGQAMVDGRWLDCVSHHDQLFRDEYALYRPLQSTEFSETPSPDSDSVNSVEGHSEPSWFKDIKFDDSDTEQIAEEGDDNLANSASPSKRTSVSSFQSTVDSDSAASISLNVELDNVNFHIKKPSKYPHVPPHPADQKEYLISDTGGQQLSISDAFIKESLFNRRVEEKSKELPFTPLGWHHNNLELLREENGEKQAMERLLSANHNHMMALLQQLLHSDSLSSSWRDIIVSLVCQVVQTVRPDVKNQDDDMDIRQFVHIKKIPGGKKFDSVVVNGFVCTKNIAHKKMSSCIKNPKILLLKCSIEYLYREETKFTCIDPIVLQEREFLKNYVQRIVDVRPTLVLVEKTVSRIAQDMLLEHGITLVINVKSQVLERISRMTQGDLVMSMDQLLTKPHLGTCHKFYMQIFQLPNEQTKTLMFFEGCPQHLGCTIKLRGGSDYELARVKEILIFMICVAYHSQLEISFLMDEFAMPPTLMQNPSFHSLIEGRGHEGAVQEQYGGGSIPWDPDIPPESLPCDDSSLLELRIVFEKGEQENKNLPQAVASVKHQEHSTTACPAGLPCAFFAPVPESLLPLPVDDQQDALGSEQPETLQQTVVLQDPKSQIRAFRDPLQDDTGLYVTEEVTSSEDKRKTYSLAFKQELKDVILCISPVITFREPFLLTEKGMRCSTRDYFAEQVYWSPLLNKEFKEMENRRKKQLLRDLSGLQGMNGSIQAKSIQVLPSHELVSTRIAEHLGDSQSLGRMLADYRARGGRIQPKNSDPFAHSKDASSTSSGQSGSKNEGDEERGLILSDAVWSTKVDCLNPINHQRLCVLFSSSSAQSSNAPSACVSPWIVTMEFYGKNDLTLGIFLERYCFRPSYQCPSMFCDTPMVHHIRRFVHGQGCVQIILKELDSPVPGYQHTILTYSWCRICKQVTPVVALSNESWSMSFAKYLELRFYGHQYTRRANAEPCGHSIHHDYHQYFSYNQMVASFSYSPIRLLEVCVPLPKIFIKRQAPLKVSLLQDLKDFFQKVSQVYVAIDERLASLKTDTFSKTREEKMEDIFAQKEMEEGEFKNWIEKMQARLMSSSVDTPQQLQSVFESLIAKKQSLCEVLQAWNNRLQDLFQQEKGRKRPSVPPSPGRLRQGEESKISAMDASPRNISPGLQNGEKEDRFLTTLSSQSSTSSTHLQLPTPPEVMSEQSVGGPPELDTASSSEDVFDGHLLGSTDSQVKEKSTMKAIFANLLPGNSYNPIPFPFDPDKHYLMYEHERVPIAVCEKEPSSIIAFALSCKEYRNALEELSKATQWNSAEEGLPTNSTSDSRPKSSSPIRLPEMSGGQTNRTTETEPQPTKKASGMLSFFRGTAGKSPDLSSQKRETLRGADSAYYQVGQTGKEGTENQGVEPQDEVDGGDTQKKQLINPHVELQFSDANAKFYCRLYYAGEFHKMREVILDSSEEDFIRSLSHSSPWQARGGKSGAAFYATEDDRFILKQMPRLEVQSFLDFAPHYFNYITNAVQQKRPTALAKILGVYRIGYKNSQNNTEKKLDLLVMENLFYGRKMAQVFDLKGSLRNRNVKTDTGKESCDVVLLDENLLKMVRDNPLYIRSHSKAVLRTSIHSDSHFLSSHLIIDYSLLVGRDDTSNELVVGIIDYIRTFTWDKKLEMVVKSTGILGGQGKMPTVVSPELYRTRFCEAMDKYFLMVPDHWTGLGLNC

C=CC(=O)N1CC[C@H](Nc2nccc(Nc3ncc(C(=O)Nc4c(C)cccc4C)s3)n2)C1 [Example I-3]
% change of MS signal compared to control sample (kinases in BCWM.1 cells [1]): 0.9%
% change of MS signal compared to control sample (kinases in BCWM.1 cells [2]): −14.8%
% change of MS signal compared to control sample (kinases in BCWM.1 cells [3]): −18.8%
% change of MS signal compared to control sample (kinases in BCWM.1 cells [4]): 91.7%
% change of MS signal compared to control sample (kinases in BCWM.1 cells [5]): −31.2%
% change of MS signal compared to control sample (kinases in BCWM.1 cells [6]): −32.7%
% change of MS signal compared to control sample (kinases in BCWM.1 cells [7]): −9.1%
% change of MS signal compared to control sample (kinases in BCWM.1 cells [8]): >91%
% change of MS signal compared to control sample (kinases in BCWM.1 cells [9]; RSK2 domain1): −2%
% change of MS signal compared to control sample (kinases in BCWM.1 cells [9]; RSK2 domain2): −10.2%
% change of MS signal compared to control sample (kinases in BCWM.1 cells [10]): 10%
% change of MS signal compared to control sample (kinases in BCWM.1 cells [11]): 7.6%
% change of MS signal compared to control sample (kinases in BCWM.1 cells [12]; RSK1 domain1): 9%
% change of MS signal compared to control sample (kinases in BCWM.1 cells [12]; RSK1 domain2): −1.9%
% change of MS signal compared to control sample (kinases in BCWM.1 cells [13]): 31.7%
% change of MS signal compared to control sample (kinases in BCWM.1 cells [14]): −17.5%
% change of MS signal compared to control sample (kinases in BCWM.1 cells [15]): −3%
% change of MS signal compared to control sample (kinases in BCWM.1 cells [16]): −13.9%
% change of MS signal compared to control sample (kinases in BCWM.1 cells [17]): 2.4%
% change of MS signal compared to control sample (kinases in BCWM.1 cells [18]): −14.1%
% change of MS signal compared to control sample (kinases in BCWM.1 cells [19]): −7.8%
% change of MS signal compared to control sample (kinases in BCWM.1 cells [20]): 6.4%
% change of MS signal compared to control sample (kinases in BCWM.1 cells [21]): −25.1%
% change of MS signal compared to control sample (kinases in BCWM.1 cells [22]): 5%
% change of MS signal compared to control sample (kinases in BCWM.1 cells [23]): 11.6%
% change of MS signal compared to control sample (kinases in BCWM.1 cells [24]): 6.5%
% change of MS signal compared to control sample (kinases in BCWM.1 cells [25]): 13.4%
% change of MS signal compared to control sample (kinases in BCWM.1 cells [26]; ABL, ARG, Activation Loop): 75.4% and 93.5%
% change of MS signal compared to control sample (kinases in BCWM.1 cells [26]; ABL, ARG, Lys1): 86.9% and 93.2%
% change of MS signal compared to control sample (kinases in BCWM.1 cells [26]; AKT2, AKT3, ATP Loop): −19.2% and −14.5%
% change of MS signal compared to control sample (kinases in BCWM.1 cells [26]; AurA, AurB, AurC, ATP Loop): 7.7% and 4.7%
% change of MS signal compared to control sample (kinases in BCWM.1 cells [26]; FYN, SRC, YES, Activation Loop): 87.3% and 85.7%
% change of MS signal compared to control sample (kinases in BCWM.1 cells [26]; MARK3, MARK4, Lys1): 2.5% and −4%
% change of MS signal compared to control sample (kinases in BCWM.1 cells [26]; MER, TYRO3, Activation Loop): 2.4% and 0.4%
% change of MS signal compared to control sample (kinases in BCWM.1 cells [26]; MST4, YSK1, Lys2, 90 min): 18.1%
% change of MS signal compared to control sample (kinases in BCWM.1 cells [26]; NEK6, NEK7, Lys2, 90 min): 6.4%
% change of MS signal compared to control sample (kinases in BCWM.1 cells [26]; PCTAIRE2, PCTAIRE3, Lys1, 90 min): −0.4%
% change of MS signal compared to control sample (kinases in BCWM.1 cells [26]; PI4KA, PI4KAP2, ATP, 90 min): −3.7%
% change of MS signal compared to control sample (kinases in BCWM.1 cells [26]; PKACa, PKCb, Lys2, 90 min): 2.4%
% change of MS signal compared to control sample (kinases in BCWM.1 cells [26]; ROCK1, ROCK2, Lys2, 90 min): −22.2%
% change of MS signal compared to control sample (kinases in BCWM.1 cells [26]; RSK1 domain1, RSK2 domain1, RSK3 domain1, Lys2, 90 min): −14.8%
% change of MS signal compared to control sample (kinases in BCWM.1 cells [26]; SRPK1, SRPK2, Lys1, 90 min): −3%
% change of MS signal compared to control sample (kinases in BCWM.1 cells [26]; TAO1, TAO3, Lys2, 90 min): 7.8%
% change of MS signal compared to control sample (kinases in BCWM.1 cells [26]; Wnk1, Wnk2, Wnk3, Lys2, 90 min): 14.9%
% change of MS signal compared to control sample (kinases in BCWM.1 cells [26]; Wnk1, Wnk2, ATP Loop, 90 min): 13.1%
% change of MS signal compared to control sample (kinases in BCWM.1 cells [26]; ZC1/HGK, ZC2/TNIK, ZC3/MINK, Lys2, 90 min): 2.7%
% change of MS signal compared to control sample (kinases in BCWM.1 cells [26]; p38d, p38g, Lys2, 90 min): 5.7%
